Measurements reported in patent publication US11759455B2, “Substituted 1H-imidazo[4,5-b]pyridin-2(3H)-ones and their use as GLUN2B receptor modulators” (JANSSEN PHARMACEUTICA NV, priority 2016, dated 2023).

Target: T1, human GluN1/GluN2B NMDA receptors (Homo sapiens, UniProt Q13224)
T1 construct: expressed in transfected cells
Experiment: Cell-based calcium flux (FLIPR) assay on cloned human NR1/NR2B ion channels expressed in mammalian cells (standard and HTS buffer variants);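 further: stable Tet-On inducible cell line, Ca2+ influx triggered by glutamate at about EC40 plus 10 µM glycine, fluorescent dye read-out over 5 min, normalized to control wells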
Conditions: standard assay buffer (0.5 mM MgCl2 dye loading; 137 mM NaCl, 4 mM KCl assay buffer), human GluN1/GluN2B cells, read-out: NR2B IC50 (μM) standard assay

T1 sequence (Q13224 27-1484, other chains not shown): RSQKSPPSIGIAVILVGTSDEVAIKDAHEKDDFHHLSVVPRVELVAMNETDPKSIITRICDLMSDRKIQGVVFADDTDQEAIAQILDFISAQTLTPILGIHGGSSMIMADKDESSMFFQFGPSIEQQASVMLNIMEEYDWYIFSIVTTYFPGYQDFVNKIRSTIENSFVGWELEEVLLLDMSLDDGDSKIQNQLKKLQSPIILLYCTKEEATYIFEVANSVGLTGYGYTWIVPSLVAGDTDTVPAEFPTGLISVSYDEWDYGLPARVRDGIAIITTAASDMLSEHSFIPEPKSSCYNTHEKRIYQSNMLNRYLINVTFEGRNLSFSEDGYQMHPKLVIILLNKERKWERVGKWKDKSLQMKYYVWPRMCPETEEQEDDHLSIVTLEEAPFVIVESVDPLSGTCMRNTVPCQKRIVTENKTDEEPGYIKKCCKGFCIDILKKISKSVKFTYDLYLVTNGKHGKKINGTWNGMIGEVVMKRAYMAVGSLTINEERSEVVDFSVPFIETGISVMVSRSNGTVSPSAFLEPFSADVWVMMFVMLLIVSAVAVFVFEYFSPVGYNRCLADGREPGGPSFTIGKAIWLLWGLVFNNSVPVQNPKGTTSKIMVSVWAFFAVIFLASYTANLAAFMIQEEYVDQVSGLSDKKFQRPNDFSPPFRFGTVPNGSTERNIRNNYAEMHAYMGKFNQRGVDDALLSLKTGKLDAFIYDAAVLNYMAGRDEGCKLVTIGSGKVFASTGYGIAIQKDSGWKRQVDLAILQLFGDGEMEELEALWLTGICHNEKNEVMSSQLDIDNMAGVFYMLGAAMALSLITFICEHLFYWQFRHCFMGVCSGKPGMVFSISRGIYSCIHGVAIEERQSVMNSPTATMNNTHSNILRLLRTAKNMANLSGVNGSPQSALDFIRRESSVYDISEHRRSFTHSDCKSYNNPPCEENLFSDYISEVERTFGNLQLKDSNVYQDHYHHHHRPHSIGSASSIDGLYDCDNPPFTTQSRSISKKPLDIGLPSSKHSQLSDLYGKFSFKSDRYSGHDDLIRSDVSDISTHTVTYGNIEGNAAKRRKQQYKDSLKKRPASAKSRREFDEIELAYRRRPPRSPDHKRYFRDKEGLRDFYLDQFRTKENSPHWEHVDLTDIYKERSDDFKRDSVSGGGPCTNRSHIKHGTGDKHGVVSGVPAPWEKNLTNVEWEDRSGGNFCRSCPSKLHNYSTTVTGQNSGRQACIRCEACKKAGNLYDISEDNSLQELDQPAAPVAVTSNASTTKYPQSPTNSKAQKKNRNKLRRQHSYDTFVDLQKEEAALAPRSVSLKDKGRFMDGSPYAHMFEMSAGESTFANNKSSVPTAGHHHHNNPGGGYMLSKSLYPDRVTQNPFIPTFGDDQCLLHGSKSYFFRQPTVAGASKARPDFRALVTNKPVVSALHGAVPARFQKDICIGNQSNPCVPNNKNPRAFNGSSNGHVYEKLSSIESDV

Structure (SMILES)	IC50 [µM]
COC1CCN(CCn2c(=O)[nH]c3ncc(-c4cc(F)cc(F)c4)cc32)C1 (stereo not shown) [Example 176, 6-(3,5-Difluorophenyl)-1-[2-(3-methoxypyrrolidin-1-yl)ethyl]-3H-imidazo[4,5-b]pyridin-2-one]	4.37
Cc1cc(F)ccc1-c1cnc2[nH]c(=O)n(CCN3CCCC3)c2c1 [Example 177, 6-(4-Fluoro-2-methyl-phenyl)-1-(2-pyrrolidin-1-ylethyl)-3H-imidazo[4,5-b]pyridin-2-one]	0.502
Cc1cccc(C)c1-c1cnc2[nH]c(=O)n(CCN3CCCC3)c2c1 [Example 178, 6-(2,6-Dimethylphenyl)-1-(2-pyrrolidin-1-ylethyl)-3H-imidazo[4,5-b]pyridin-2-one]	20.7
Cc1ccccc1-c1cnc2[nH]c(=O)n(CCN3CCCC3)c2c1 [Example 179, 6-(o-Tolyl)-1-(2-pyrrolidin-1-ylethyl)-3H-imidazo[4,5-b]pyridin-2-one]	0.707
O=c1[nH]c2ncc(-c3ccccc3)cc2n1CCN1CCCC1 [Example 180, 6-Phenyl-1-(2-pyrrolidin-1-ylethyl)-3H-imidazo[4,5-b]pyridin-2-one]	0.539
Cc1c(-c2cnc3[nH]c(=O)n(CCN4CC(F)C4)c3c2)cccc1C(F)(F)F [Example 181, 1-[2-(3-Fluoroazetidin-1-yl)ethyl]-6-[2-methyl-3-(trifluoromethyl)phenyl]-3H-imidazo[4,5-b]pyridin-2-one]	9.35
Cc1cccc(-c2cnc3[nH]c(=O)n(CCN4CC(F)C4)c3c2)c1C [Example 182, 6-(2,3-Dimethylphenyl)-1-[2-(3-fluoroazetidin-1-yl)ethyl]-3H-imidazo[4,5-b]pyridin-2-one]	1.74
Cc1cc(C)cc(-c2cnc3[nH]c(=O)n(CCN4CC(F)C4)c3c2)c1 [Example 183, 6-(3,5-Dimethylphenyl)-1-[2-(3-fluoroazetidin-1-yl)ethyl]-3H-imidazo[4,5-b]pyridin-2-one]	2.08
Cc1c(F)ccc(-c2cnc3[nH]c(=O)n(CCN4CC(F)C4)c3c2)c1C [Example 184, 1-[2-(3-Fluoroazetidin-1-yl)ethyl]-6-(4-fluoro-2,3-dimethyl-phenyl)-3H-imidazo[4,5-b]pyridin-2-one]	2.57
Cc1ccc(C(F)(F)F)cc1-c1cnc2[nH]c(=O)n(CCN3CC(F)C3)c2c1 [Example 185, 1-[2-(3-Fluoroazetidin-1-yl)ethyl]-6-[2-methyl-5-(trifluoromethyl)phenyl]-3H-imidazo[4,5-b]pyridin-2-one]	2.13
Cc1ccccc1-c1cnc2[nH]c(=O)n(CCN3CC(F)C3)c2c1 [Example 186, 1-[2-(3-Fluoroazetidin-1-yl)ethyl]-6-(o-tolyl)-3H-imidazo[4,5-b]pyridin-2-one]	1.34
Cc1cc(F)ccc1-c1cnc2[nH]c(=O)n(CCN3CC(F)C3)c2c1 [Example 187, 1-[2-(3-Fluoroazetidin-1-yl)ethyl]-6-(4-fluoro-2-methyl-phenyl)-3H-imidazo[4,5-b]pyridin-2-one]	1.19
O=c1[nH]c2ncc(-c3ccccc3)cc2n1CCN1CC(F)C1 [Example 188, 1-[2-(3-Fluoroazetidin-1-yl)ethyl]-6-phenyl-3H-imidazo[4,5-b]pyridin-2-one]	1.44
CCCNCCn1c(=O)[nH]c2ncc(-c3cc(F)cc(F)c3)cc21 [Example 189, 6-(3,5-Difluorophenyl)-1-[2-(propylamino)ethyl]-3H-imidazo[4,5-b]pyridin-2-one]	2.57
O=C(Cn1c(=O)[nH]c2ncc(-c3cccc(C(F)(F)F)c3)cc21)NC1CCC1 [Example 190, N-Cyclobutyl-2-[2-oxo-6-[3-(trifluoromethyl)phenyl]-3H-imidazo[4,5-b]pyridin-1-yl]acetamide]	0.07
COC1CN(C(=O)Cn2c(=O)[nH]c3ncc(-c4cccc(C(F)(F)F)c4)cc32)C1 [Example 191, 1-[2-(3-Methoxyazetidin-1-yl)-2-oxo-ethyl]-6-[3-(trifluoromethyl)phenyl]-3H-imidazo[4,5-b]pyridin-2-one]	0.132
O=C(Cn1c(=O)[nH]c2ncc(-c3cccc(C(F)(F)F)c3)cc21)NC1COC1 [Example 192, N-(Oxetan-3-yl)-2-[2-oxo-6-[3-(trifluoromethyl)phenyl]-3H-imidazo[4,5-b]pyridin-1-yl]acetamide]	0.052
CN1CCN(C(=O)Cn2c(=O)[nH]c3ncc(-c4cccc(C(F)(F)F)c4)cc32)CC1 [Example 193, 1-[2-(4-Methylpiperazin-1-yl)-2-oxo-ethyl]-6-[3-(trifluoromethyl)phenyl]-3H-imidazo[4,5-b]pyridin-2-one]	0.587
O=C(Cn1c(=O)[nH]c2ncc(-c3cccc(C(F)(F)F)c3)cc21)N1CC(F)(F)C1 [Example 194, 1-[2-(3,3-Difluoroazetidin-1-yl)-2-oxo-ethyl]-6-[3-(trifluoromethyl)phenyl]-3H-imidazo[4,5-b]pyridin-2-one]	0.047

Structure (SMILES)	IC50 [µM]
O=C(Cn1c(=O)[nH]c2ncc(-c3cccc(C(F)(F)F)c3)cc21)NC1CC(F)(F)C1 [Example 195, N-(3,3-Difluorocyclobutyl)-2-[2-oxo-6-[3-(trifluoromethyl)phenyl]-3H-imidazo[4,5-b]pyridin-1-yl]acetamide]	0.007
Cn1c(=O)n(CC(=O)N2CCC(F)(F)C2)c2cc(-c3cccc(C(F)(F)F)c3)cnc21 [Example 196, 1-[2-(3,3-Difluoropyrrolidin-1-yl)-2-oxo-ethyl]-3-methyl-6-[3-(trifluoromethyl)phenyl]imidazo[4,5-b]pyridin-2-one]	0.182
Cn1c(=O)n(CC(=O)N2CCCC2)c2cc(-c3cccc(C(F)(F)F)c3)cnc21 [Example 197, 3-Methyl-1-(2-oxo-2-pyrrolidin-1-yl-ethyl)-6-[3-(trifluoromethyl)phenyl]imidazo[4,5-b]pyridin-2-one]	0.205
Cn1c(=O)n(CC(=O)NC2(C)CC(F)(F)C2)c2cc(-c3cccc(C(F)(F)F)c3)cnc21 [Example 198, N-(3,3-Difluoro-1-methyl-cyclobutyl)-2-[3-methyl-2-oxo-6-[3-(trifluoromethyl)phenyl]imidazo[4,5-b]pyridin-1-yl]acetamide]	5.01
Cn1c(=O)n(CC(=O)NC2(C)COC2)c2cc(-c3cccc(C(F)(F)F)c3)cnc21 [Example 199, N-(3-Methyloxetan-3-yl)-2-[3-methyl-2-oxo-6-[3-(trifluoromethyl)phenyl]imidazo[4,5-b]pyridin-1-yl]acetamide]	2.66
Cn1c(=O)n(CC(=O)NC2CC(F)(F)C2)c2cc(-c3cccc(C(F)(F)F)c3)cnc21 [Example 200, N-(3,3-Difluorocyclobutyl)-2-[3-methyl-2-oxo-6-[3-(trifluoromethyl)phenyl]imidazo[4,5-b]pyridin-1-yl]acetamide]	0.174
O=C(Cn1c(=O)[nH]c2ncc(-c3cccc(C(F)(F)F)c3)cc21)N1CCCC1 [Example 201, 1-(2-Oxo-2-pyrrolidin-1-yl-ethyl)-6-[3-(trifluoromethyl)phenyl]-3H-imidazo[4,5-b]pyridin-2-one]	0.033
O=C(Cn1c(=O)[nH]c2ncc(-c3cccc(C(F)(F)F)c3)cc21)N1CCOCC1 [Example 204, 1-(2-Morpholino-2-oxo-ethyl)-6-[3-(trifluoromethyl)phenyl]-3H-imidazo[4,5-b]pyridin-2-one]	0.037
O=C(Cn1c(=O)[nH]c2ncc(-c3cccc(C(F)(F)F)c3)cc21)NC1CCCC1 [Example 205, N-Cyclopentyl-2-[2-oxo-6-[3-(trifluoromethyl)phenyl]-3H-imidazo[4,5-b]pyridin-1-yl]acetamide]	0.523
O=C(Cn1c(=O)[nH]c2ncc(-c3cccc(C(F)(F)F)c3)cc21)N1CCCCC1 [Example 206, 1-[2-Oxo-2-(1-piperidyl)ethyl]-6-[3-(trifluoromethyl)phenyl]-3H-imidazo[4,5-b]pyridin-2-one]	0.163
O=C(Cn1c(=O)[nH]c2ncc(-c3cccc(C(F)(F)F)c3)cc21)N1CC2(CNC2)C1 [Example 207, 1-[2-(2,6-Diazaspiro[3.3]heptan-6-yl)-2-oxo-ethyl]-6-[3-(trifluoromethyl)phenyl]-3H-imidazo[4,5-b]pyridin-2-one]	0.453
O=C(Cn1c(=O)[nH]c2ncc(-c3cccc(C(F)(F)F)c3)cc21)Nc1ccccn1 [Example 208, 2-[2-Oxo-6-[3-(trifluoromethyl)phenyl]-3H-imidazo[4,5-b]pyridin-1-yl]-N-(2-pyridyl)acetamide]	> 10
CC1(NC(=O)Cn2c(=O)[nH]c3ncc(-c4cccc(C(F)(F)F)c4)cc32)CC(F)(F)C1 [Example 209, N-(3,3-Difluoro-1-methyl-cyclobutyl)-2-[2-oxo-6-[3-(trifluoromethyl)phenyl]-3H-imidazo[4,5-b]pyridin-1-yl]acetamide]	0.443
COc1ccc(Cn2c(=O)[nH]c3ncc(-c4cccc(C(F)(F)F)c4)cc32)cn1 [Example 210, 1-[(6-Methoxy-3-pyridyl)methyl]-6-[3-(trifluoromethyl)phenyl]-3H-imidazo[4,5-b]pyridin-2-one]	1.62
O=c1[nH]c2ncc(-c3cccc(C(F)(F)F)c3)cc2n1CC1CC1 [Example 211, 1-(Cyclopropylmethyl)-6-[3-(trifluoromethyl)phenyl]-3H-imidazo[4,5-b]pyridin-2-one]	0.115
N#Cc1cccc(Cn2c(=O)[nH]c3ncc(-c4cccc(C(F)(F)F)c4)cc32)c1 [Example 212, 3-[[2-Oxo-6-[3-(trifluoromethyl)phenyl]-3H-imidazo[4,5-b]pyridin-1-yl]methyl]benzonitrile]	0.123
N#Cc1ccccc1Cn1c(=O)[nH]c2ncc(-c3cccc(C(F)(F)F)c3)cc21 [Example 213, 2-[[2-Oxo-6-[3-(trifluoromethyl)phenyl]-3H-imidazo[4,5-b]pyridin-1-yl]methyl]benzonitrile]	0.375
O=C(Cn1c(=O)[nH]c2ncc(-c3cccc(C(F)(F)F)c3)cc21)c1cccs1 [Example 214, 1-[2-Oxo-2-(2-thienyl)ethyl]-6-[3-(trifluoromethyl)phenyl]-3H-imidazo[4,5-b]pyridin-2-one]	> 10
